# How the values were obtained:
# LcrF (VirF) = LcrF (VirF) (Yersinia pestis, UniProt P28808); assay: biochemical; format: binding, Y. pseudotuberculosis
# [1] = system: Y. pseudotuberculosis cytotoxicity toward J774 cells; assay: microbe, parasite or virus in culture; conditions: Yersinia pseudotuberculosis, J774, read-out: % Cytotoxicity
# [2] = system: P. aeruginosa cytotoxicity toward J774 cells; assay: Inhibition of P. aeruginosa cytotoxicity toward J774 macrophage-like cells, whole cell LDH release assay (CytoTox 96); set-up: dose or concentration left out as unconfirmed; conditions: Pseudomonas aeruginosa, J774, read-out: % Cytotoxicity
# ExsA = molecular target: T1, ExsA (Pseudomonas aeruginosa, UniProt P26993); assay: Inhibition of ExsA-DNA binding, cell-free chemiluminescence assay; set-up: species or system P. aeruginosa
# T1 construct: made in house
# T1 sequence (P26993 1-278): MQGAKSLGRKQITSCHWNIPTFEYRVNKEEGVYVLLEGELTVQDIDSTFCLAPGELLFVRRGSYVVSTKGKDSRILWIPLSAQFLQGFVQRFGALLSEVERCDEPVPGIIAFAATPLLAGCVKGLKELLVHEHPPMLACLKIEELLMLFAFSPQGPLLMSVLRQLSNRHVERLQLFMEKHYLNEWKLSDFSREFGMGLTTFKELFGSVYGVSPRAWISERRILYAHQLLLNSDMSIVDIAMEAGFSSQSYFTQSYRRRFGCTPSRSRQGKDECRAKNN
# Sequence of LcrF (VirF) (P28808 whole entry, looked up): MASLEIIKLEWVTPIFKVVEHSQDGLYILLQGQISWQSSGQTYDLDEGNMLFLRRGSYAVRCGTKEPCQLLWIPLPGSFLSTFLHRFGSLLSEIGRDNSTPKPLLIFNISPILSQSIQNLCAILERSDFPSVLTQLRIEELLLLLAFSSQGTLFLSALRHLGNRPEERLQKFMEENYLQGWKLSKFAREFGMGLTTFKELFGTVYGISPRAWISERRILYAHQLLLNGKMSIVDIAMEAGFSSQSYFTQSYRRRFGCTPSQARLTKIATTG
Structure (SMILES),IC50 (LcrF (VirF)) [µM],activity at 50 µg/mL [1] [%],activity [2] [%],IC50 (ExsA) [µM]
O=C(/C=C/c1ccc(F)cc1)Nc1ccc(-c2nc3ccc(Cl)cc3n2O)cc1 [AG],> 50,75 to 99,75 to 99,
O=C(O)Cc1cc([N+](=O)[O-])cc2c1nc(-c1ccc(NC(=O)/C=C/c3ccc(F)cc3)cc1)n2O [AH],10 to 25,75 to 99,75 to 99,
CC(=O)c1ccc(/C=C/C(=O)Nc2ccc(-c3nc4ccc(Cl)cc4n3O)cc2)cc1 [B],> 50,75 to 99,75 to 99,10 to 25
"CC(=O)c1ccc(/C=C/C(=O)Nc2ccc(-c3nc4ccc(C#N)cc4n3O)cc2)cn1 [Compound A, (E)-3-(6-Acetyl-pyridin-3-yl)-N-[4-(6-cyano-1-hydroxy-1H-benzoimidazol-2-yl)-phenyl]-acrylamide]",25 to 50,< 75,< 75,> 50
"O=C(O)Cc1cc([N+](=O)[O-])cc2c1nc(-c1ccc(NC(=O)c3ccc(-n4ccnc4)cc3)cc1)n2O [Compound AA, {1-Hydroxy-2-[4-(4-imidazol-1-yl-benzoylamino)-phenyl]-6-nitro-1H-benzoimidazol-4-yl}-acetic acid]",< 10,< 75,< 75,
"CC(=O)c1ccc2nc(-c3ccc(NC(=O)/C=C/c4ccc(F)cc4)cc3)n(O)c2c1 [Compound AB, (E)-N-[4-(6-Acetyl-1-hydroxy-1H-benzoimidazol-2-yl)-phenyl]-3-(4-fluoro-phenyl)-acrylamide]",25 to 50,75 to 99,75 to 99,
"O=C(/C=C/c1ccc(F)cc1)Nc1ccc(-c2nc3ccc(F)cc3n2O)cc1 [Compound AC, (E)-N-[4-(6-Fluoro-1-hydroxy-1H-benzoimidazol-2-yl)-phenyl]-3-(4-fluoro-phenyl)-acrylamide]",> 50,75 to 99,75 to 99,
"CS(=O)(=O)c1ccc2nc(-c3ccc(NC(=O)/C=C/c4ccc(F)cc4)cc3)n(O)c2c1 [Compound AD, (E)-3-(4-Fluoro-phenyl)-N-[4-(1-hydroxy-6-methanesulfonyl-1H-benzoimidazol-2-yl)-phenyl]-acrylamide]",> 50,75 to 99,75 to 99,
"O=C(/C=C/c1ccc(F)cc1)Nc1ccc(-c2nc3ccccc3n2O)cc1 [Compound AE, (E)-3-(4-Fluoro-phenyl)-N-[4-(1-hydroxy-1H-benzoimidazol-2-yl)-phenyl]-acrylamide]",> 50,75 to 99,75 to 99,
"O=C(/C=C/c1ccc(F)cc1)Nc1ccc(-c2nc3ccc(C(F)(F)F)cc3n2O)cc1 [Compound AF, (E)-3-(4-Fluoro-phenyl)-N-[4-(1-hydroxy-6-trifluoromethyl-1H-benzoimidazol-2-yl)-phenyl]-acrylamide]",> 50,75 to 99,75 to 99,
"O=C(/C=C/c1ccc(F)cc1)Nc1ccc(-c2nc3ccc(C(=O)O)cc3n2O)cc1 [Compound AI, 2-{4-[(E)-3-(4-Fluoro-phenyl)-acryloylamino]-phenyl}-3-hydroxy-3H-benzoimidazole-5-carboxylic acid]",25 to 50,< 75,75 to 99,
O=C(Nc1ccc(-c2nc3ccc([N+](=O)[O-])cc3n2O)cc1)c1ccc(-n2cccn2)nc1 [Compound I],25 to 50,< 75,75 to 99,25 to 50
"O=C(Nc1ccc(-c2nc3ccc([N+](=O)[O-])cc3n2O)cc1)c1cccc(N2CCOCC2)n1 [Compound N, 6-Morpholin-4-yl-pyridine-2-carboxylic acid [4-(1-hydroxy-6-nitro-1H-benzoimidazol-2-yl)-phenyl]-amide]",> 50,75 to 99,75 to 99,10 to 25
"CC(=O)c1ccc(C(=O)Nc2ccc(-c3nc4c(CC(=O)O)cc([N+](=O)[O-])cc4n3O)cc2)cc1 [Compound R, {2-[4-(4-Acetyl-benzoylamino)-phenyl]-1-hydroxy-6-nitro-1H-benzoimidazol-4-yl}-acetic acid]",25 to 50,75 to 99,75 to 99,25 to 50
O=C(Nc1ccc(-c2nc3ccc([N+](=O)[O-])cc3n2O)cc1)c1ccnc(N2CCOCC2)c1 [Compound T],> 50,< 75,75 to 99,> 50
"CSc1ccc2nc(-c3ccc(NC(=O)/C=C/c4ccc(C(C)=O)cc4)cc3)n(O)c2c1 [Compound U, (E)-3-(4-Acetyl-phenyl)-N-[4-(1-hydroxy-6-methylsulfanyl-1H-benzoimidazol-2-yl)-phenyl]-acrylamide]",> 50,75 to 99,75 to 99,10 to 25
"Cc1nc(C(F)(F)F)ccc1C(=O)Nc1ccc(-c2nc3ccc([N+](=O)[O-])cc3n2O)cc1 [Compound W, N-[4-(1-Hydroxy-6-nitro-1H-benzoimidazol-2-yl)-phenyl]-2-methyl-6-trifluoromethyl-nicotinamide]",> 50,75 to 99,75 to 99,> 50
"O=C(Nc1ccc(-c2nc3ccc([N+](=O)[O-])cc3n2O)cc1)c1ccc(OCC(F)(F)F)nc1 [Compound X, N-[4-(1-Hydroxy-6-nitro-1H-benzoimidazol-2-yl)-phenyl]-6-(2,2,2-trifluoro-ethoxy)-nicotinamide]",25 to 50,75 to 99,75 to 99,25 to 50
O=C(Nc1ccc(-c2nc3ccc([N+](=O)[O-])cc3n2O)cc1)c1ccc(C(O)(O)C(F)(F)F)cc1 [E],> 50,75 to 99,75 to 99,> 50
N#Cc1ccc2nc(-c3ccc(NC(=O)c4ccc(C(O)(O)C(F)(F)F)cc4)cc3)n(O)c2c1 [F],> 50,75 to 99,75 to 99,10 to 25
O=C(/C=C/c1ccc(C(O)(O)C(F)(F)F)cc1)Nc1ccc(-c2nc3ccc([N+](=O)[O-])cc3n2O)cc1 [K],> 50,75 to 99,75 to 99,> 50
N#Cc1ccc2nc(-c3ccc(NC(=O)/C=C/c4ccc(C(O)(O)C(F)(F)F)cc4)cc3)n(O)c2c1 [L],> 50,75 to 99,75 to 99,10 to 25
CN1CCN(c2ccc(C(=O)Nc3ccc(-c4nc5ccc([N+](=O)[O-])cc5n4O)cc3)cn2)CC1 [O],> 50,75 to 99,75 to 99,> 50
O=C(O)Cc1cc([N+](=O)[O-])cc2c1nc(-c1ccc(NC(=O)c3ccc(N4CCOCC4)nc3)cc1)n2O [Q],25 to 50,75 to 99,75 to 99,25 to 50
O=C(Nc1ccc(-c2nc3ccc([N+](=O)[O-])cc3n2O)cc1)c1ccc(N2CCCCC2)nc1 [S],> 50,75 to 99,75 to 99,25 to 50
CN(C)c1ccc(C(=O)Nc2ccc(-c3nc4ccc([N+](=O)[O-])cc4n3O)cc2)cn1 [Y],10 to 25,< 75,75 to 99,10 to 25

# — patent publication US20110059962A1, “TRANSCRIPTION FACTOR MODULATING COMPOUNDS AND METHODS OF USE THEREOF” (priority 2009, published 2011)
